The values that follow come from ChEMBL document CHEMBL4152230, “Discovery of N-{3-[(ethanimidoylamino)methyl]benzyl}-l-prolinamide dihydrochloride: A new potent and selective inhibitor of the inducible nitric oxide synthase as a promising agent for the therapy of malignant glioma” (Eur J Med Chem, 2018).

Series [1] addresses T1, Nitric oxide synthase, inducible (Mus musculus, UniProt P29477).
T1 sequence (P29477 whole entry): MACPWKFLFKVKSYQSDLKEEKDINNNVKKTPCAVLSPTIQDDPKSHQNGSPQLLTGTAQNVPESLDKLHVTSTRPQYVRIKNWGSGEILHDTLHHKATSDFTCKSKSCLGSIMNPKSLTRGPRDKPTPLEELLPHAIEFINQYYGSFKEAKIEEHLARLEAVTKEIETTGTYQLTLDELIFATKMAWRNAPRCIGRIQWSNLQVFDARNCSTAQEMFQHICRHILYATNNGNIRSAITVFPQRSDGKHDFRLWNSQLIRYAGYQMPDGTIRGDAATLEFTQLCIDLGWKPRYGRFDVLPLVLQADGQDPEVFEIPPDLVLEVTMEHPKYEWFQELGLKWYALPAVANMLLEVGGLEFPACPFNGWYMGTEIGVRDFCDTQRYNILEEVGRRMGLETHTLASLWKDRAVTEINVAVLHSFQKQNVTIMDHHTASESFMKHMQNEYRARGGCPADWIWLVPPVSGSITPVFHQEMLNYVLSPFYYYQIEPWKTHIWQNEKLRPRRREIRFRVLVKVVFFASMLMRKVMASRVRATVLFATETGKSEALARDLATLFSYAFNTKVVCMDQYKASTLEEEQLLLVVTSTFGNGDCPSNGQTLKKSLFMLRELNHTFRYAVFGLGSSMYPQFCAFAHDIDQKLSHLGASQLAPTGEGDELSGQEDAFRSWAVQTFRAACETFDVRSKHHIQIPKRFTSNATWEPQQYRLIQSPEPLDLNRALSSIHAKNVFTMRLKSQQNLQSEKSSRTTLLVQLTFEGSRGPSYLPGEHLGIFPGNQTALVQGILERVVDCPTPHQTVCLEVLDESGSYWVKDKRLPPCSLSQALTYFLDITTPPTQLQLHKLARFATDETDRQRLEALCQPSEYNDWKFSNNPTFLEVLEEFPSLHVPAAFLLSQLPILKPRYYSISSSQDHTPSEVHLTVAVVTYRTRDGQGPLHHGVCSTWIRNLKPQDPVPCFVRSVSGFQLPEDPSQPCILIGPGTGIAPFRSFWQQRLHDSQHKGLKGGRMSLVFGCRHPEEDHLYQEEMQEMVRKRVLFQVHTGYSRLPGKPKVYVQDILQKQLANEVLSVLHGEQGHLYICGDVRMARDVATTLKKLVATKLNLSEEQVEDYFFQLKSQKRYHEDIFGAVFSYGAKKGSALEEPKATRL
Description: Inhibition of recombinant mouse iNOS using [3H]L-arginine as substrate preincubated for 15 mins followed by NADPH addition measured after 20 mins in presence of FMN/FAD by liquid scintillation counting method.

The next series concerns the target T2, Nitric oxide synthase 3 (Bos taurus, UniProt P29473).
T2 sequence (P29473 whole entry): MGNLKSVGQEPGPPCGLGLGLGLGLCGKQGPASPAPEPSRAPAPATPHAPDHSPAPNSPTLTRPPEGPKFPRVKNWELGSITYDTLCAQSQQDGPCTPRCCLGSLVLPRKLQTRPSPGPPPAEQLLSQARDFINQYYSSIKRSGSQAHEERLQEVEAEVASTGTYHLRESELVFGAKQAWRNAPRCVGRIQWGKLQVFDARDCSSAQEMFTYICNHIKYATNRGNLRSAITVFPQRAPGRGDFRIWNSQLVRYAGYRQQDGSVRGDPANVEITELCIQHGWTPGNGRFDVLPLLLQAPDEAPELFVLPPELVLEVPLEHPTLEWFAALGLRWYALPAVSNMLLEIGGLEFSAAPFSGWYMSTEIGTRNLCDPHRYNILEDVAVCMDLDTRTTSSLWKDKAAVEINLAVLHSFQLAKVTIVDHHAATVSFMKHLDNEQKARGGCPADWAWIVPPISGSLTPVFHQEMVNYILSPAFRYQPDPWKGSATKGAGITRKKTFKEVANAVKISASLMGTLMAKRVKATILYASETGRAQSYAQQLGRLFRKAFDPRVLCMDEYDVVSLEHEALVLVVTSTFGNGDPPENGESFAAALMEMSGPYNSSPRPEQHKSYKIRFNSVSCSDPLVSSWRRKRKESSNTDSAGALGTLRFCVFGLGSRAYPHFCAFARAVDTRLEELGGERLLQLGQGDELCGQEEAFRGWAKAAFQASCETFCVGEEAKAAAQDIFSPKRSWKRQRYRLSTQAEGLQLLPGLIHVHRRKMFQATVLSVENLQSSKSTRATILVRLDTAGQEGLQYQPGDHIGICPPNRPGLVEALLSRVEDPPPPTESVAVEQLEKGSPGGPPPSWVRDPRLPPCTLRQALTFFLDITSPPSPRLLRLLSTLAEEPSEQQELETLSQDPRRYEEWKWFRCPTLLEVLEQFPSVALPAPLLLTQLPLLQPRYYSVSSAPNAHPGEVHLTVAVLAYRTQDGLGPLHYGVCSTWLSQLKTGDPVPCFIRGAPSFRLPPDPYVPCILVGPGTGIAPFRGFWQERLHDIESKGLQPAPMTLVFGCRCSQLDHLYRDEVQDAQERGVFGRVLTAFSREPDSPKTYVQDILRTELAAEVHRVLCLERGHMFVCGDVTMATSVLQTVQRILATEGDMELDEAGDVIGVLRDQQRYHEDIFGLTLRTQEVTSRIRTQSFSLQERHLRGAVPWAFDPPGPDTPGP
Description: Inhibition of recombinant bovine eNOS using [3H]L-arginine as substrate preincubated for 15 mins followed by NADPH addition measured after 20 mins in presence of FMN/FAD by liquid scintillation counting method.

A short description of series [2]: Selectivity index, ratio of IC50 for recombinant bovine eNOS to IC50 for recombinant mouse iNOS.
For series [3], the target named is Nitric oxide synthase, inducible (Rattus norvegicus) (UniProt Q06518). Description: Ex vivo inhibition of iNOS in mesenteric vascular arteries isolated from LPS-induced septic shock Sprague-Dawley rat model assessed as increase in noradrenaline-mediated vasoconstriction by measuring changes in perfusion pressure at 100 uM preincubated for 30 mins followed by noradrenaline treatment.

A short description of series [4]: Cytotoxicity against rat CTX/TNA2 cells assessed as inhibition of cell proliferation up to 72 hrs by MTT assay. In kind it is cell-based. On the technique in general: Formazan colour is commonly taken as a measure of viable cells.
Series [5] in a line: Cytotoxicity against rat CTX/TNA2 cells assessed as inhibition of cell proliferation at 1.5 mM after 24 hrs by MTT assay relative to control. The format is cell-based.
Series [6] can be described thus: Cytotoxicity against rat CTX/TNA2 cells assessed as inhibition of cell proliferation at 2 mM after 24 hrs by MTT assay relative to control. The format is cell-based.
In series [7] the test system is C6. Description: Cytotoxicity against rat C6 cells assessed as cell proliferation at 1 mM after 24 hrs by MTT assay relative to control. The format is functional. The following applies: C6, 24 h, read-out: Activity.
Series [8] relates to C6. Description: Cytotoxicity against rat C6 cells assessed as cell proliferation at 1.5 mM after 24 hrs by MTT assay relative to control. The format is functional. The following applies: C6, 24 h, read-out: Activity.
In series [9] the test system is C6. Description: Cytotoxicity against rat C6 cells assessed as cell proliferation at 2 mM after 24 hrs by MTT assay relative to control. The format is functional. To be noted: C6, 24 h, read-out: Activity.
Series [10] relates to C6. Description: Cytotoxicity against rat C6 cells assessed as inhibition of cell proliferation after 24 to 48 hrs by MTT assay. The format is functional, cell-based.
The subject of series [11] is C6. Description: Cytotoxicity against rat C6 cells assessed as cell proliferation at 0.5 mM after 48 hrs by MTT assay relative to control. In kind it is functional. The following applies: C6, 48 h, read-out: Activity.
For series [12], the system named is C6. Description: Cytotoxicity against rat C6 cells assessed as cell proliferation up to 2 mM after 48 hrs by MTT assay relative to control. The format is functional.
The test system of series [13] is C6. Description: Cytotoxicity against rat C6 cells assessed as cell proliferation at 0.75 mM after 72 hrs by MTT assay relative to control. The format is functional. To be noted: C6, 72 h, read-out: Activity.

Calls of active or inactive are those of the source. The rule behind the calls is not given here.

Chain of Nitric oxide synthase, inducible (Rattus norvegicus) (Q06518 whole entry, the tested form may be a part): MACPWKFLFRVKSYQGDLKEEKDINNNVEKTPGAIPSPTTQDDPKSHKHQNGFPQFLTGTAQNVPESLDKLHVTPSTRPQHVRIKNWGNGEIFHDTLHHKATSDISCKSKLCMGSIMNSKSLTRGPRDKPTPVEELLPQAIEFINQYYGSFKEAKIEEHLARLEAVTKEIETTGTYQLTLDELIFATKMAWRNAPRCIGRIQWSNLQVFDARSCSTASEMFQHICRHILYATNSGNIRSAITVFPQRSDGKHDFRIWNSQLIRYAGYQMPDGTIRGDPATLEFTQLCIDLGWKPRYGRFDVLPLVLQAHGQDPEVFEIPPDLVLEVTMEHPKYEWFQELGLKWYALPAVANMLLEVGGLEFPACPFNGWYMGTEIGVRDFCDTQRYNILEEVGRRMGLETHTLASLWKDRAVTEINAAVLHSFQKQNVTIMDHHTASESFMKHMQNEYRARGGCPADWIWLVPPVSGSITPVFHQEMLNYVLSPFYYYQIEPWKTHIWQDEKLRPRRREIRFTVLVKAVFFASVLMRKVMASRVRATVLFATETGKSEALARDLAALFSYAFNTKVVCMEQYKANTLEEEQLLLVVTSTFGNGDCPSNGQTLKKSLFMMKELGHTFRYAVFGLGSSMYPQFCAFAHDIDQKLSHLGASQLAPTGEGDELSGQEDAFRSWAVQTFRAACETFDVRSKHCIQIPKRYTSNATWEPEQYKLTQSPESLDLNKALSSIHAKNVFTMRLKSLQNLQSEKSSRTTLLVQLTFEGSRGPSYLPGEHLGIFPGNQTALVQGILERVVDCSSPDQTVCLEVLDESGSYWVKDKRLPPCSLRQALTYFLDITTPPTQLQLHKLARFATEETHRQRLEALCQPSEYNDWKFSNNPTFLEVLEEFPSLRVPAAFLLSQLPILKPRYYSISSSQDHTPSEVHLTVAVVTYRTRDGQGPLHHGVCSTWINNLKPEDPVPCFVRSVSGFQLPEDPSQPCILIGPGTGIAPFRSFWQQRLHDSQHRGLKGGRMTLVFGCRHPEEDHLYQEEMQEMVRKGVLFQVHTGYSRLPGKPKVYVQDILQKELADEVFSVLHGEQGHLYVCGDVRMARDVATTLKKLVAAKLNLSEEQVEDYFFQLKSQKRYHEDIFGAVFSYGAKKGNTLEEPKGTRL

Regarding `CC(=N)NCc1cccc(CNC(=O)[C@@H](N)Cc2c[nH]c3ccccc23)c1`, in series [1], the IC50 (commonly the concentration that inhibits the measured activity by half) is greater than 10 µM.

As for `CC(=N)NCc1cccc(CNC(=O)[C@@H](N)CO)c1`, the concentration for half-maximal inhibition (IC50) in series [1] was greater than 10 µM.

In the case of `CC(=N)NCc1cccc(CNC(=O)[C@@H](N)CCCNC(=N)N)c1`, the IC50 in [1] was 0.45 µM; at Nitric oxide synthase 3, greater than 1000 µM. Besides, the Ratio IC50 in series [2] is greater than 2220.

For the molecule `CC(=N)NCc1cccc(CNC(=O)[C@@H](N)Cc2cnc[nH]2)c1`, the results for the IC50 (in series [1]; at Nitric oxide synthase 3) were 0.534 µM and greater than 1000 µM, respectively. The Ratio IC50 in series [2] was greater than 1870.

In the case of `COC(=O)[C@@H](N)CCCNC(=N)N[N+](=O)[O-]`, the inhibition – broadly, the relative decrease from the control value, in per cent – in series [3] was “Active”.

Consider `CC(=N)NCc1cccc(CNC(=O)[C@@H](N)CC(=O)O)c1`, for which the 50% inhibitory concentration (IC50) was determined as 1.02 µM in series [1] and 331 µM at Nitric oxide synthase 3. In addition, in series [2], the Ratio IC50 was found to be 323.

As for `CC(=N)NCc1cccc(CN)c1` [1400W], the results for the Activity entry (in [4]; in the series with C6 [12]) were “Dose-dependent effect” and 35.66%, respectively. For the same molecule, the inhibition at 24 h, 1500 µM in series [5] is no more than 67.4%. Besides, the inhibition at 24 h, 2000 µM in series [6] was 69.2%. Moreover, the growth at 1000 µM in the series with C6 [7] was determined as 83.2%. For the same molecule, the growth at 1500 µM with C6 [8] stood at 70.6%. Moreover, the growth at 2000 µM with C6 [9] was 55.2%. Moreover, the inhibition entry with C6 [10] is “Dose-dependent effect”. The growth at 500 µM with C6 [11] was found to be 68.9%. Also, in the series on C6 [13], the growth at 750 µM came to 64.6%.

As for `CC(=N)NCc1cccc(CNC(=O)[C@@H](N)CC(N)=O)c1`, the half-maximal inhibitory concentration (IC50) in series [1] is greater than 10 µM.

As for `CC(=N)NCc1cccc(CNC(=O)[C@@H](N)CCC(N)=O)c1`, in series [1], the IC50 is greater than 10 µM.

`CC[C@H](C)[C@H](N)C(=O)NCc1cccc(CNC(C)=N)c1`: the IC50 in [1] is 0.17 µM; on Nitric oxide synthase 3, greater than 1000 µM. Further, the Ratio IC50 in [2] was greater than 5850.

Take `CC(=N)NCc1cccc(CNC(=O)[C@H](C)N)c1`: the IC50 was 0.276 µM in [1] and greater than 1000 µM on Nitric oxide synthase 3. The Ratio IC50 in series [2] is greater than 3600.

Consider `CSCC[C@H](N)C(=O)NCc1cccc(CNC(C)=N)c1`, for which the IC50 in series [1] was greater than 10 µM.

On to `CC(=N)NCc1cccc(CNC(=O)[C@@H](N)Cc2ccccc2)c1`, for which the IC50 in series [1] was greater than 10 µM.

Regarding `CC(=N)NCc1cccc(CNC(=O)[C@@H](N)CS)c1`, the concentration for half-maximal inhibition (IC50) in series [1] is greater than 10 µM.

Regarding `CC(=N)NCc1cccc(CNC(=O)[C@@H](N)Cc2ccc(O)cc2)c1`, the half-maximal inhibitory concentration (IC50) in series [1] is greater than 10 µM.

Turning to `CC(=N)NCc1cccc(CNC(=O)[C@@H](N)CC(C)C)c1`, the IC50 turned out to be 0.253 µM in series [1] and 300 µM on Nitric oxide synthase 3. For the same molecule, the Ratio IC50 in [2] came to 1180.

As to `CC(=N)NCc1cccc(CNC(=O)[C@@H](N)C(C)C)c1`, in series [1], the IC50 was greater than 10 µM.

Consider `CC(=N)NCc1cccc(CNC(=O)[C@@H](N)CCCCN)c1`, for which the IC50 worked out at 0.446 µM in series [1] and 211 µM on Nitric oxide synthase 3. Moreover, the Ratio IC50 in series [2] was 473.

As to `CC(=N)NCc1cccc(CNC(=O)[C@@H](N)CCC(=O)O)c1`, the 50% inhibitory concentration (IC50) in series [1] stood at 1.23 µM; on Nitric oxide synthase 3 it was 10 µM. Also, the Ratio IC50 in [2] was 8.

Consider `CC(=N)NCc1cccc(CNC(=O)[C@@H](N)[C@@H](C)O)c1`, for which the half-maximal inhibitory concentration (IC50) in series [1] was greater than 10 µM.
